Calls of active or inactive are those of the source. The calls are words filed in the database; no cut-off is given here.
Key:
Mus musculus [1] = assay: Neuroprotective activity in C57BL/6 mouse sub-acute MPTP-induced parkinson's disease model assessed as increase in GAP-43 expression in brain at 10 mg/kg, ip administered for 1 week prior to MPTP challenge by immunohistochemistry; type: functional, organism-based; parameters: dose 10 mg/kg
Mus musculus [2] = assay: Neuroprotective activity in C57BL/6 mouse acute MPTP-induced Parkinson's disease model assessed as increase in GAP-43 expression in brain at 10 mg/kg, ip administered for 1 week prior to MPTP challenge by immunohistochemistry; type: functional, organism-based; parameters: dose 10 mg/kg
Mus musculus [3] = assay: Toxicity in C57BL/6 mouse assessed as faster drop time at 10 mg/kg, ip by pole test; type: organism-based; parameters: dose 10 mg/kg, route intraperitoneal; conditions: in vivo
Mus musculus [4] = assay: Neuroprotective activity in C57BL/6 mouse sub-acute MPTP-induced parkinson's disease model assessed as bewilderment at 10 mg/kg, ip administered for 1 week prior to MPTP challenge by pole test relative to untreated control; type: functional, organism-based; parameters: dose 10 mg/kg
Mus musculus [5] = assay: Neuroprotective activity in C57BL/6 mouse sub-acute MPTP-induced parkinson's disease model assessed as latency time at 10 mg/kg, ip administered for 1 week prior to MPTP challenge by open field test relative to vehicle-treated control; type: functional; conditions: route intraperitoneal
Mus musculus [6] = assay: Neuroprotective activity in C57BL/6 mouse acute MPTP-induced parkinson's disease model assessed as preservation of neurological behavioural changes at 10 mg/kg, ip administered for 1 week prior to MPTP challenge measured for 3 mins by open field test relative to vehicle-treated control; type: functional, organism-based; parameters: dose 10 mg/kg
Mus musculus [7] = assay: Toxicity in C57BL/6 mouse assessed as change in body weight at 10 mg/kg, ip; type: organism-based; parameters: dose 10 mg/kg, route intraperitoneal; conditions: in vivo
Mus musculus [8] = assay: Antiparkinsonian activity in C57BL/6 mouse sub-acute MPTP-induced parkinson's disease model assessed as reduction in MPTP-induced change in body weight at 10 mg/kg, ip administered for 1 week prior to MPTP challenge relative to control; type: functional, organism-based; parameters: dose 10 mg/kg
Mus musculus [9] = assay: Antiparkinsonian activity in C57BL/6 mouse acute MPTP-induced parkinson's disease model assessed as reduction in MPTP-induced change in body weight at 10 mg/kg, ip administered for 1 week prior to MPTP challenge relative to control; type: functional, organism-based; parameters: dose 10 mg/kg
Mus musculus [10] = assay: Antiapoptotic activity against C57BL/6 mouse sub-acute MPTP-induced parkinson's disease model assessed as protection against neuronal functional disruption at 10 mg/kg, ip administered for 1 week prior to MPTP challenge by golgi staining-based microscopic analysis relative to untreated control; type: organism-based; parameters: dose 10 mg/kg
Mus musculus [11] = assay: Antiapoptotic activity against DA neurons in C57BL/6 mouse acute MPTP-induced parkinson's disease model assessed as protection against neuronal functional disruption at 10 mg/kg, ip administered for 1 week prior to MPTP challenge by golgi staining-based microscopic analysis relative to untreated control; type: organism-based; parameters: dose 10 mg/kg
Mus musculus [12] = assay: Toxicity in C57BL/6 mouse assessed as Bcl2 expression in brain at 10 mg/kg, ip measured after 8 days by immunohistochemistry; type: organism-based; parameters: dose 10 mg/kg, route intraperitoneal; conditions: in vivo, 192 h
Mus musculus [13] = assay: Antiapoptotic activity against DA neurons in C57BL/6 mouse acute MPTP-induced parkinson's disease model assessed as increase in Bcl2 expression at 10 mg/kg, ip administered for 1 week prior to MPTP challenge measured after 8 days by immunohistochemistry relative to untreated control; type: functional, organism-based; parameters: dose 10 mg/kg
Mus musculus [14] = assay: Antiapoptotic activity against DA neurons in C57BL/6 mouse sub-acute MPTP-induced parkinson's disease model assessed as increase in Bcl2 expression at 10 mg/kg, ip administered for 1 week prior to MPTP challenge measured after 8 days by immunohistochemistry relative to untreated control; type: functional, organism-based; parameters: dose 10 mg/kg
Mus musculus [15] = assay: Toxicity in C57BL/6 mouse assessed as Bax expression in brain at 10 mg/kg, ip measured after 8 days by immunohistochemistry; type: organism-based; parameters: dose 10 mg/kg, route intraperitoneal; conditions: in vivo, 192 h
Mus musculus [16] = assay: Antiapoptotic activity against DA neurons in C57BL/6 mouse sub-acute MPTP-induced parkinson's disease model assessed as reduction in Bax expression at 10 mg/kg, ip administered for 1 week prior to MPTP challenge measured after 8 days by immunohistochemistry relative to untreated control; type: functional, organism-based; parameters: dose 10 mg/kg
Mus musculus [17] = assay: Antiinflammatory activity against C57BL/6 mouse sub-acute MPTP-induced parkinson's disease model assessed as reduction in cytosolic GFAP localization in brain at 10 mg/kg, ip administered for 1 week prior to MPTP challenge by immunohistochemistry relative to untreated control; type: functional, organism-based; parameters: dose 10 mg/kg
Mus musculus [18] = assay: Neurotoxicity in C57BL/6 mouse assessed as cytosolic GFAP localization in brain at 10 mg/kg, ip by immunohistochemistry; type: toxicity, organism-based; parameters: dose 10 mg/kg, route intraperitoneal; conditions: in vivo
Mus musculus [19] = assay: Antiapoptotic activity against DA neurons in C57BL/6 mouse acute MPTP-induced parkinson's disease model assessed as reduction in Bax expression at 10 mg/kg, ip administered for 1 week prior to MPTP challenge measured after 8 days by immunohistochemistry relative to untreated control; type: functional, organism-based; parameters: dose 10 mg/kg
Mus musculus [20] = assay: Neurotoxicity in C57BL/6 mouse assessed as Nrf2 localization in brain at 10 mg/kg, ip by immunohistochemistry; type: toxicity, organism-based; parameters: dose 10 mg/kg, route intraperitoneal; conditions: in vivo
Mus musculus [21] = assay: Antiinflammatory activity against C57BL/6 mouse acute MPTP-induced parkinson's disease model assessed as reduction in cytosolic GFAP localization in brain at 10 mg/kg, ip administered for 1 week prior to MPTP challenge by immunohistochemistry relative to untreated control; type: functional, organism-based; parameters: dose 10 mg/kg
Mus musculus [22] = assay: Antiinflammatory activity against C57BL/6 mouse sub-acute MPTP-induced parkinson's disease model assessed as increase in Nrf2 localization in brain at 10 mg/kg, ip administered for 1 week prior to MPTP challenge by immunohistochemistry relative to untreated control; type: functional, organism-based; parameters: dose 10 mg/kg
Mus musculus [23] = assay: Antiinflammatory activity against C57BL/6 mouse acute MPTP-induced parkinson's disease model assessed as increase in Nrf2 localization in brain at 10 mg/kg, ip administered for 1 week prior to MPTP challenge by immunohistochemistry relative to untreated control; type: functional, organism-based; parameters: dose 10 mg/kg
Mus musculus [24] = assay: Neurotoxicity in C57BL/6 mouse assessed as nitrotyrosine localization in substantia nigra pars compacta at 10 mg/kg, ip by immunohistochemistry; type: toxicity, organism-based; parameters: dose 10 mg/kg, route intraperitoneal; conditions: in vivo
Mus musculus [25] = species on record: Mus musculus; assay: Antiinflammatory activity against C57BL/6 mouse sub-acute MPTP-induced parkinson's disease model assessed as reduction in nitrotyrosine localization in substantia nigra pars compacta prior to MPTP challenge by immunohistochemistry relative to untreated control; type: functional, organism-based
Mus musculus [26] = assay: Neurotoxicity in C57BL/6 mouse assessed as IL-1beta localization in brain at 10 mg/kg, ip measured after 8 days by immunohistochemistry; type: toxicity, organism-based; parameters: dose 10 mg/kg, route intraperitoneal; conditions: in vivo, 192 h
Mus musculus [27] = assay: Antiinflammatory activity against C57BL/6 mouse acute MPTP-induced parkinson's disease model assessed as reduction in nitrotyrosine localization in substantia nigra pars compacta at 10 mg/kg, ip administered for 1 week prior to MPTP challenge by immunohistochemistry relative to untreated control; type: functional, organism-based; parameters: dose 10 mg/kg
Mus musculus [28] = assay: Antiinflammatory activity against C57BL/6 mouse sub-acute MPTP-induced parkinson's disease model assessed as reduction in IL-1beta localization in brain at 10 mg/kg, ip administered for 1 week prior to MPTP challenge measured after 8 days by immunohistochemistry relative to untreated control; type: functional, organism-based; parameters: dose 10 mg/kg
Mus musculus [29] = assay: Antiinflammatory activity against C57BL/6 mouse acute MPTP-induced parkinson's disease model assessed as reduction in IL-1beta localization in brain at 10 mg/kg, ip administered for 1 week prior to MPTP challenge measured after 8 days by immunohistochemistry relative to untreated control; type: functional, organism-based; parameters: dose 10 mg/kg
Mus musculus [30] = assay: Neurotoxicity in C57BL/6 mouse assessed as TH protein expression in striatum at 10 mg/kg, ip measured after 8 days by immunohistochemistry; type: toxicity, organism-based; parameters: dose 10 mg/kg, route intraperitoneal; conditions: in vivo, 192 h
Mus musculus [31] = assay: Neuroprotective activity in C57BL/6 mouse sub-acute MPTP-induced parkinson's disease model assessed as increase in TH protein expression in striatum at 10 mg/kg, ip administered for 1 week prior to MPTP challenge measured after 8 days by immunohistochemistry relative to untreated control; type: functional, organism-based; parameters: dose 10 mg/kg
Mus musculus [32] = assay: Neurotoxicity in C57BL/6 mouse assessed as reduction of DA transporter expression in substantia nigra at 10 mg/kg, ip by immunohistochemistry; type: toxicity, organism-based; parameters: dose 10 mg/kg, route intraperitoneal; conditions: in vivo
Mus musculus [33] = assay: Neuroprotective activity in C57BL/6 mouse acute MPTP-induced parkinson's disease model assessed as increase in TH protein expression in striatum at 10 mg/kg, ip administered for 1 week prior to MPTP challenge measured after 8 days by immunohistochemistry relative to untreated control; type: functional, organism-based; parameters: dose 10 mg/kg
Mus musculus [34] = assay: Neuroprotective activity in C57BL/6 mouse sub-acute MPTP-induced parkinson's disease model assessed as prevention of loss of DA transporter expression in substantia nigra at 10 mg/kg, ip administered for 1 week prior to MPTP challenge by immunohistochemistry; type: functional, organism-based; parameters: dose 10 mg/kg
Mus musculus [35] = assay: Neuroprotective activity in C57BL/6 mouse sub-acute MPTP-induced parkinson's disease model assessed as increase in BDNF expression in brain at 10 mg/kg, ip administered for 1 week prior to MPTP challenge by immunohistochemistry; type: functional, organism-based; parameters: dose 10 mg/kg
Mus musculus [36] = assay: Neuroprotective activity in C57BL/6 mouse acute MPTP-induced parkinson's disease model assessed as prevention of loss of DA transporter expression in substantia nigra at 10 mg/kg, ip administered for 1 week prior to MPTP challenge by immunohistochemistry; type: functional, organism-based; parameters: dose 10 mg/kg
Mus musculus [37] = assay: Neurotoxicity in C57BL/6 mouse assessed as basal NGF expression in brain at 10 mg/kg, ip by immunohistochemistry; type: toxicity, organism-based; parameters: dose 10 mg/kg, route intraperitoneal; conditions: in vivo
Mus musculus [38] = assay: Neuroprotective activity in C57BL/6 mouse acute MPTP-induced parkinson's disease model assessed as increase in BDNF expression in brain at 10 mg/kg, ip administered for 1 week prior to MPTP challenge by immunohistochemistry; type: functional, organism-based; parameters: dose 10 mg/kg
Mus musculus [39] = assay: Neuroprotective activity in C57BL/6 mouse sub-acute MPTP-induced parkinson's disease model assessed as increase in NGF expression in brain at 10 mg/kg, ip administered for 1 week prior to MPTP challenge by immunohistochemistry; type: functional, organism-based; parameters: dose 10 mg/kg
Mus musculus [40] = assay: Neuroprotective activity in C57BL/6 mouse acute MPTP-induced parkinson's disease model assessed as increase in NGF expression in brain at 10 mg/kg, ip administered for 1 week prior to MPTP challenge by immunohistochemistry; type: functional, organism-based; parameters: dose 10 mg/kg
Mus musculus [41] = assay: Neurotoxicity in C57BL/6 mouse assessed as basal GAP-43 expression in brain at 10 mg/kg, ip by immunohistochemistry; type: toxicity, organism-based; parameters: dose 10 mg/kg, route intraperitoneal; conditions: in vivo

C[S@@+]([O-])CCCC/C(=N/OS(=O)(=O)O)S[C@@H]1O[C@H](CO)[C@@H](O)[C@H](O)[C@H]1O (racemic)
Activity (Mus musculus [1]): Active | Activity (Mus musculus [2]): Active | Activity (Mus musculus [3]): Non-toxic | Activity (Mus musculus [4]): Active | Time (Mus musculus [5]): 0 min | Activity (Mus musculus [6]): Active | Activity (Mus musculus [7]): Non-toxic | Activity (Mus musculus [8]): Active | Activity (Mus musculus [9]): Active | Activity (Mus musculus [10]): Active | Activity (Mus musculus [11]): Active | Activity (Mus musculus [12]): Non-toxic | Activity (Mus musculus [13]): Active | Activity (Mus musculus [14]): Active | Activity (Mus musculus [15]): Non-toxic | Activity (Mus musculus [16]): Active | Activity (Mus musculus [17]): Active | Activity (Mus musculus [18]): Non-toxic | Activity (Mus musculus [19]): Active | Activity (Mus musculus [20]): Non-toxic | Activity (Mus musculus [21]): Active | Activity (Mus musculus [22]): Active | Activity (Mus musculus [23]): Active | Activity (Mus musculus [24]): Non-toxic | Activity (Mus musculus [25]): Active | Activity (Mus musculus [26]): Non-toxic | Activity (Mus musculus [27]): Active | Activity (Mus musculus [28]): Active | Activity (Mus musculus [29]): Active | Activity (Mus musculus [30]): Non-toxic | Activity (Mus musculus [31]): Active | Activity (Mus musculus [32]): Non-toxic | Activity (Mus musculus [33]): Active | Activity (Mus musculus [34]): Active | Activity (Mus musculus [35]): Active | Activity (Mus musculus [36]): Active | Activity (Mus musculus [37]): Non-toxic | Activity (Mus musculus [38]): Active | Activity (Mus musculus [39]): Active | Activity (Mus musculus [40]): Active | Activity (Mus musculus [41]): Non-toxic
